Reference: patent publication US20140088085A1, “Substituted Benzoazepines As Toll-Like Receptor Modulators” (ARRAY BIOPHARMA, INC, priority 2011, published 2014)
Like-named read-outs stand apart in the source and are kept apart here.

Target: T1, hTLR8 (Homo sapiens, UniProt Q9NR97)
T1 construct: host or cells: HEK293 cells stably transfected with hTLR8
T1 sequence (Q9NR97 27-1041): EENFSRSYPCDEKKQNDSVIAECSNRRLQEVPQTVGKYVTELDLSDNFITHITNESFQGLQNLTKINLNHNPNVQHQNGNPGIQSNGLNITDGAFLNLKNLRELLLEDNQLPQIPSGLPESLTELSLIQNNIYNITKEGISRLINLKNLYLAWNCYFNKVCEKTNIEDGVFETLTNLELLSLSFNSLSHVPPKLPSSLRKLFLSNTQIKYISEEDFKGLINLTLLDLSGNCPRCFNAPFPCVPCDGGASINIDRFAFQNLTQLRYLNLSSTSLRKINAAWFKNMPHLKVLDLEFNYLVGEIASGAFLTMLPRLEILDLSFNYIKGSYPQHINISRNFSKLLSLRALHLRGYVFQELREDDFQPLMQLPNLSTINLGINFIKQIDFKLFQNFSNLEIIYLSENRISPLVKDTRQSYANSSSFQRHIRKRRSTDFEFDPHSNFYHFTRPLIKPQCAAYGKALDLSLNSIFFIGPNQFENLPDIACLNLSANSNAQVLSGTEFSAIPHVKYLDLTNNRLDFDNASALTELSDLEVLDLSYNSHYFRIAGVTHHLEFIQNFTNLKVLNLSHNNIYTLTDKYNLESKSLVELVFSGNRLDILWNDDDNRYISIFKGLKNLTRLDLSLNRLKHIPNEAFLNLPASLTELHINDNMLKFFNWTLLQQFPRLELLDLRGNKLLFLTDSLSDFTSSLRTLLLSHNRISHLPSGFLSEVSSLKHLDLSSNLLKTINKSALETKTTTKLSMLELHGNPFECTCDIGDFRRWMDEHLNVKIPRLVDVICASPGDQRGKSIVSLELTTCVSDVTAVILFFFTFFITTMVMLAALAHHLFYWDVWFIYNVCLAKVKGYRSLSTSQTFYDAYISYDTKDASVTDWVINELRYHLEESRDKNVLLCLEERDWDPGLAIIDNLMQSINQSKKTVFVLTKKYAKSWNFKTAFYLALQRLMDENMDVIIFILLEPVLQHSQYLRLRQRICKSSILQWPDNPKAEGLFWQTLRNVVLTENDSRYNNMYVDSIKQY
Experiment: HEK-293 hTLR8 transfectant NF-κB SEAP reporter antagonist assay
Type: cell-based
Conditions: for inhibition at 25 µM: HEK293, TLR8 antagonist activity at 25 μM (in some cases assessed at lower concentrations)
Experimental: The HEK-293 hTLR transfectant assay employs HEK293 cells stably transfected with various hTLRs and transiently co-transfected with a plasmid containing an NF-κB driven secreted embryonic alkaline phosphate (SEAP) reporter gene. Stimulation of TLRs activates their downstream signaling pathways and induces nuclear translocation of the transcription factor NF-κB. Reporter gene activity is then measured using a spectrophotometric assay.
For the TLR8 antagonist assays, cells are transiently transfected with the reporter gene on Day 1 per the supplier's instructions. Antagonist compounds are added to the cultures on Day 2 followed by addition of a TLR8 agonist approximately 2 hours later. Cultures are incubated overnight and SEAP activity is measured on Day 3.
In a typical assay, 50,000 HEK239 hTLR8 cells are seeded per culture well and transiently transfected with the SEAP reporter gene. Antagonists are added to cultures in culture medium and […] DMSO over a concentration range of 0.1 nanomolar to 10 micromolar. TLR8 agonists are added to cultures 2 hours later at a fixed concentration (e.g., 1 micromolar or 10 micromolar of Compound A) and cultures are then incubated for 16-24 hrs at 37° C. in a humidified CO incubator. Antagonists are also evaluated for activity in the absence of agonist.
TLR8 antagonist activity at 25 μM is presented in Table 2, where + denotes a % inhibition of 20-39, ++ denotes a % inhibition of 40-59, +++ denotes a % inhibition of 60-79 and ++++ denotes a % inhibition of 80-99. In some cases, antagonist activity was assessed at lower concentrations, for example, at 8.3, 2.8, or less than 1 μM.
TLR8 antagonist activity was measured in a hTLR8 assay format, measuring IC50 values. Compounds were incubated with hTLR8 reporter cells for two hours, then 1 μM Compound A was added to induce TLR8 overnight. IC50 were then calculated.

[1] = hTLR8 reporter cells, 2 h preincubation, then 1 μM Compound A overnight, read-out: IC50
[2] = IC50, nM, vs. VTX-378 1 μM, agonist VTX-378 at 1 μM
[3] = IC50, nM, vs. VTX-378 10 μM, agonist VTX-378 at 10 μM
[4] = agonist VTX-378 at 0.5 μM, read-out: IC50, nM, vs. VTX-378 0.5 μM

Work on CCCN(CCC)C(=O)C1=Cc2cc(OC)c(-c3ccc(C(=O)N(CCC)CCC)cc3)cc2N=C(N)C1 [Compound 12, (1E,4E)-2-Amino-8-(4-(dipropylcarbamoyl)phenyl)-7-methoxy-N,N-dipropyl-3H-benzo[b]azepine-4-carboxamide] yielded an IC50 [1] of 1000 to 5000 nM.

For CCCN(CCCO)C(=O)C1=Cc2cc(OC)c(-c3ccc(C(=O)N4CCCC4)cc3)cc2N=C(N)C1 [Compound 25, (1E,4E)-2-Amino-N-(3-hydroxypropyl)-7-methoxy-N-propyl-8-(4-(pyrrolidine-1-carbonyl)phenyl)-3H-benzo[b]azepine-4-carboxamide], the inhibition at 25 µM was 20 to 39%.

CCCN(CCC)C(=O)C1=Cc2ccc(-c3ccc(C(=O)N4CCCC4)cc3)cc2N=C(NN)C1 [Compound 33, (1E,4E)-2-Hydrazinyl-N,N-dipropyl-8-(4-(pyrrolidine-1-carbonyl)phenyl)-3H-benzo[b]azepine-4-carboxamide] showed an inhibition at 25 µM of 80 to 99% and an IC50 [1] of 1000 to 5000 nM.

CCCN(CCCO)C(=O)C1=Cc2ccc(-c3ccc(C(=O)N4CCCC4)cc3)cc2N=C(NC)C1 [Compound 46, (1E,4E)-N-(3-Hydroxypropyl)-2-(methylamino)-N-propyl-8-(4-(pyrrolidine-1-carbonyl)phenyl)-3H-benzo[b]azepine-4-carboxamide] was tested, and the inhibition at 25 µM was 40 to 59%.

Work on CCCN(CCCO)C(=O)C1=Cc2ccc(-c3ccc(C(=O)N4CCCC4)cc3)cc2N=C(NCCN(C)C)C1 [Compound 47, (1E,4E)-2-(2-(Dimethylamino)ethylamino)-N-(3-hydroxypropyl)-N-propyl-8-(4-(pyrrolidine-1-carbonyl)phenyl)-3H-benzo[b]azepine-4-carboxamide] yielded an inhibition at 25 µM of 20 to 39%.

With CCOC(=O)C1=Cc2cc(-c3ccc(C(=O)N4CCCC4)cc3)ccc2N=C(N)C1 [Compound 63, (1E,4E)-Ethyl 2-amino-7-(4-(pyrrolidine-1-carbonyl)phenyl)-3H-benzo[b]azepine-4-carboxylate] the inhibition at 25 µM was 80 to 99% and the IC50 [1] was < 1000 nM.

Compound CCCN(CCC)C(=O)C1=Cc2cc(OC)c(-c3ccc(C(=O)N4CCCC4)cc3)cc2N=C(N)C1 [Compound 65, (1E,4E)-2-Amino-7-methoxy-N,N-dipropyl-8-(4-(pyrrolidine-1-carbonyl)phenyl)-3H-benzo[b]azepine-4-carboxamide] has an inhibition at 25 µM of 60 to 79% and an IC50 [1] of 5000 to 10000 nM.

In the case of CCCN(CCC)C(=O)C1=Cc2cc(OC)ccc2N=C(N)C1 [Compound 70, (1E,4E)-2-amino-7-methoxy-N,N-dipropyl-3H-benzo[b]azepine-4-carboxamide], the inhibition at 25 µM is reported as 40 to 59%.

CCOC(=O)C1=Cc2cc(OCc3ccccn3)ccc2N=C(N)C1 [Compound 74, (1E,4E)-ethyl 2-amino-7-(pyridin-2-ylmethoxy)-3H-benzo[b]azepine-4-carboxylate] showed an inhibition at 25 µM of 60 to 79% and an IC50 [1] of 1000 to 5000 nM.

For CCOC(=O)C1=Cc2cc(OC)c(-c3ccc(C(=O)N4CCCC4)cc3)cc2N=C(N)C1 [Compound 76, (1E,4E)-ethyl 2-amino-7-methoxy-8-(4-(pyrrolidine-1-carbonyl)phenyl)-3H-benzo[b]azepine-4-carboxylate], the inhibition at 25 µM was 80 to 99% and the IC50 [1] was ≥ 10000 nM.

CCOC(=O)N1Cc2ccc(-c3ccc(C(=O)N4CCCC4)cc3)cc2N=C(N)C12CC2 [Compound 88, (E)-Ethyl 2-amino-8-(4-(pyrrolidine-1-carbonyl)phenyl)spiro[benzo[e][1,4]diazepine-3,1′-cyclopropane]-4(5H)-carboxylate] was tested, and the inhibition at 25 µM was 20 to 39% and the IC50 [1] was 5000 to 10000 nM.

CCOC(=O)C1=Cc2ccc(-c3ccc(C(=O)N4CCCC4)cc3)cc2N2CCN=C2C1 [Compound 90, (E)-ethyl 9-(4-(pyrrolidine-1-carbonyl)phenyl)-2,4-dihydro-1H-benzo[f]imidazo[1,2-a]azepine-5-carboxylate] gave an inhibition at 25 µM of 60 to 79%.

In the case of CCOC(=O)C1=Cc2cc(-c3ccc(C(=O)N4CCCC4)cc3)ccc2-n2ccnc2C1 [Compound 2919], the IC50 [2] is reported as ≥ 10000 nM and the IC50 [3] is reported as ≥ 10000 nM.

CCOC(=O)C1=Cc2cc(-c3ccc(C(=O)N4CCCC4)cc3)ccc2N=C(NC)C1 [Compound 2922] was tested, and the IC50 [2] was 1000 to 10000 nM and the IC50 [3] was ≥ 10000 nM.

For CCOC(=O)C1=Cc2cc(-c3ccc(C(=O)N4CCCC4)cc3)ccc2N=C(NN(C)C)C1 [Compound 2926], the IC50 [2] was 1000 to 10000 nM and the IC50 [3] was ≥ 10000 nM.

For CCOC(=O)C1=Cc2cc(-c3ccc(C(=O)N4CCCC4)cc3)ccc2N=C(N(C)C)C1 [Compound 2929], the IC50 [2] was ≥ 10000 nM and the IC50 [3] was ≥ 10000 nM.

In the case of COC(=O)C1=Cc2cc(-c3ccc(C(=O)N4CCCC4)cc3)ccc2N=C(N)C1 [Compound 2931], the IC50 [2] is reported as < 1000 nM and the IC50 [3] is reported as 1000 to 10000 nM.

In the case of CCOC(=O)N1CC(N)=Nc2ccc(-c3ccc(C(=O)N4CCCC4)cc3)cc2C1 [Compound 2954], the IC50 [2] is reported as ≥ 10000 nM and the IC50 [3] is reported as ≥ 10000 nM.

With CCOC(=O)C1=Cc2cc(-c3ccc(C(=O)N4CCCC4)cc3)ccc2N=C(NN)C1 [Compound 2962] the IC50 [2] was ≥ 10000 nM and the IC50 [3] was ≥ 10000 nM.

With CCOC(=O)C1=Cc2cc(-c3ccc(C(=O)N4CCCC4)cc3)ccc2N2CCN=C2C1 [Compound 2966] the IC50 [2] was ≥ 10000 nM and the IC50 [3] was ≥ 10000 nM.

For CCOC(=O)C1=Cc2cc(-c3ccc(C(=O)N4CCCC4)cc3)ccc2-n2cnnc2C1 [Compound 2976], the IC50 [2] was ≥ 10000 nM and the IC50 [3] was ≥ 10000 nM.

For CC(C)OC(=O)C1=Cc2cc(-c3ccc(C(=O)N4CCCC4)cc3)ccc2N=C(N)C1 [Compound 2984], the IC50 [2] was < 1000 nM and the IC50 [3] was 1000 to 10000 nM.

With CN(C)C(=O)C1=Cc2cc(-c3ccc(C(=O)N4CCCC4)cc3)ccc2N=C(N)C1 [Compound 2986] the IC50 [2] was < 1000 nM and the IC50 [3] was ≥ 10000 nM.

CCOC(=O)C1=Cc2cc(-c3ccc(C(=O)N4CCCC4)cc3)ccc2-n2c(n[nH]c2=O)C1 [Compound 3000] was tested, and the IC50 [2] was ≥ 10000 nM and the IC50 [3] was ≥ 10000 nM.

With CCOC(=O)N1Cc2cc(-c3ccc(C(=O)N4CCCC4)cc3)ccc2N=C(N)C12CC2 [Compound 3020] the IC50 [2] was ≥ 10000 nM and the IC50 [3] was ≥ 10000 nM.

For CCOC(=O)C1=Cc2cc(-c3ccc(C(=O)N4CCCC4)cc3)ccc2N=C(N)C1C (stereo not shown) [Compound 3173], the IC50 [2] was < 1000 nM and the IC50 [4] was < 1000 nM.

CCOC(=O)C1=Cc2cc(-c3ccc(C(=O)N4CCCC4)cc3)ccc2N=C(N)C12CC2 [Compound 3260] was tested, and the IC50 (IC50, nM, vs. 3M002 10 μM, agonist 3M002 at 10 μM) was < 1000 nM, the IC50 [2] was < 1000 nM and the IC50 [4] was < 1000 nM.
